Source: BindingDB's records for doi:10.1016/0960-894X(95)00537-3 (1995)
pIC50: −log10 of the molar value.

biological target: Gastrin/cholecystokinin type B receptor (Cavia porcellus); experiment: Inhibitory activity towards binding of [125I]Bolton-Hunter-CCK-8 to CCKB receptor in guinea pig cortical tissue

Row | pIC50 | Compound
1 | 6.80 | Cc1cccc(NC(=O)N[C@H](COCc2ccccc2)C(=O)N2CCC(C(=O)Nc3ccccc3)CC2)c1 [1-[(R)-3-Benzyloxy-2-(3-m-tolyl-ureido)-propionyl]-piperidine-4-carboxylic acid phenylamide]
2 | < 5.00 | Cc1cccc(NC(=O)N[C@H](CCC(=O)OCc2ccccc2)C(=O)N2CCC(NC(=O)c3ccccc3)CC2)c1 [5-(4-Benzoylamino-piperidin-1-yl)-5-(R)-oxo-4-(3-m-tolyl-ureido)-pentanoic acid benzyl ester]
3 | 6.64 | Cc1cccc(NC(=O)N[C@H](COCc2ccccc2)C(=O)N2CCC(C(=O)c3ccc(F)cc3)CC2)c1 [1-{1-((R)-Benzyloxymethyl)-2-[4-(4-fluoro-benzoyl)-piperidin-1-yl]-2-oxo-ethyl}-3-m-tolyl-urea]
4 | 5.41 | Cc1cccc(NC(=O)N[C@H](CCc2ccccc2)C(=O)N2CCC(C(=O)c3ccccc3)CC2)c1 [1-[(R)-1-(4-Benzoyl-piperidine-1-carbonyl)-3-phenyl-propyl]-3-m-tolyl-urea]
5 | 5.82 | Cc1cccc(NC(=O)N[C@H](COC(=O)N(C)C)C(=O)N2CCC(C(=O)c3ccccc3)CC2)c1 [Dimethyl-carbamic acid (R)-3-(4-benzoyl-piperidin-1-yl)-3-oxo-2-(3-m-tolyl-ureido)-propyl ester]
6 | < 5.00 | CC(C)C[C@H](NC(=O)[C@H](Cc1c[nH]c2ccccc12)NC(=O)OC(C)(C)C)C(=O)N1CCC(Cc2ccccc2)CC1 [[(S)-1-[(S)-1-(4-Benzyl-piperidine-1-carbonyl)-3-methyl-butylcarbamoyl]-2-(1H-indol-3-yl)-ethyl]-carbamic acid tert-butyl ester]
7 | < 5.16 | CC(=O)C1CCN(C(=O)[C@@H](COCc2ccccc2)NC(=O)Nc2cccc(C)c2)CC1 [1-[(R)-2-(4-Acetyl-piperidin-1-yl)-1-benzyloxymethyl-2-oxo-ethyl]-3-m-tolyl-urea]
8 | 6.36 | Cc1cccc(NC(=O)N[C@@H](C(=O)N2CCC(C(=O)c3ccccc3)CC2)[C@@H](C)OCc2ccccc2)c1 [1-{(R)-1-[(R)-(4-Benzoyl-piperidin-1-yl)-oxo-methyl]-2-benzyloxy-propyl}-3-m-tolyl-urea]
9 | 6.09 | Cc1cccc(NC(=O)N[C@H](CS(=O)(=O)Cc2ccccc2)C(=O)N2CCC(C(=O)c3ccccc3)CC2)c1 [1-[(S)-2-(4-Benzoyl-piperidin-1-yl)-2-oxo-1-phenylmethanesulfonylmethyl-ethyl]-3-m-tolyl-urea]
10 | < 5.00 | CC(C)(C)OC(=O)N[C@@H](Cc1c[nH]c2ccccc12)C(=O)N1CCC(C(=O)c2ccccc2)CC1 [[(S)-2-(4-Benzoyl-piperidin-1-yl)-1-(1H-indol-3-ylmethyl)-2-oxo-ethyl]-carbamic acid tert-butyl ester]
11 | 6.74 | Cc1cccc(NC(=O)N[C@H](COC(=O)N2CCOCC2)C(=O)N2CCC(C(=O)c3ccccc3)CC2)c1 [Morpholine-4-carboxylic acid (R)-3-(4-benzoyl-piperidin-1-yl)-3-oxo-2-(3-m-tolyl-ureido)-propyl ester]
12 | 7.00 | Cc1cccc(NC(=O)N[C@H](COC(=O)N2CCCC2)C(=O)N2CCC(C(=O)c3ccccc3)CC2)c1 [Pyrrolidine-1-carboxylic acid (R)-3-(4-benzoyl-piperidin-1-yl)-3-oxo-2-(3-m-tolyl-ureido)-propyl ester]
13 | 7.47 | Cc1cccc(NC(=O)N[C@H](COC(=O)N2CCCC2)C(=O)N2CCC(C(=O)Nc3ccccc3)CC2)c1 [Pyrrolidine-1-carboxylic acid (R)-3-oxo-3-(4-phenylcarbamoyl-piperidin-1-yl)-2-(3-m-tolyl-ureido)-propyl ester]
14 | 5.47 | CC(Cc1c[nH]c2ccccc12)(NC(=O)OC1[C@H]2C[C@@H]3C[C@@H](C[C@H]1C3)C2)C(=O)N1CCC(C(=O)c2ccccc2)CC1 (some centres not stated) [[2-(4-Benzoyl-piperidin-1-yl)-1-(1H-indol-3-ylmethyl)-1-methyl-2-oxo-ethyl]-carbamic acid adamantan-2-yl ester]
15 | 6.52 | Cc1cccc(NC(=O)N[C@H](COCc2ccccc2)C(=O)N2CCC(C(=O)c3ccccc3)CC2)c1 [1-[(R)-2-(4-Benzoyl-piperidin-1-yl)-1-benzyloxymethyl-2-oxo-ethyl]-3-m-tolyl-urea]
16 | 5.32 | CCCC[C@@H](NC(=O)Nc1cccc(C)c1)C(=O)N1CCC(C(=O)c2ccccc2)CC1 [1-[(R)-1-(4-Benzoyl-piperidine-1-carbonyl)-pentyl]-3-m-tolyl-urea]
17 | < 5.00 | Cc1cccc(NC(=O)N[C@H](CCC(=O)OCc2ccccc2)C(=O)N2CCN(C(=O)c3ccccc3)CC2)c1
18 | 6.92 | Cc1cccc(NC(=O)N[C@H](COC(=O)Nc2ccccc2)C(=O)N2CCC(C(=O)c3ccccc3)CC2)c1 [Phenyl-carbamic acid (R)-3-(4-benzoyl-piperidin-1-yl)-3-oxo-2-(3-m-tolyl-ureido)-propyl ester]
19 | 6.04 | CC(C)C[C@H](NC(=O)[C@H](Cc1c[nH]c2ccccc12)NC(=O)OC(C)(C)C)C(=O)N1CCC(C(=O)c2ccccc2)CC1 [[(S)-1-[(S)-1-(4-Benzoyl-piperidine-1-carbonyl)-3-methyl-butylcarbamoyl]-2-(1H-indol-3-yl)-ethyl]-carbamic acid tert-butyl ester]
20 | 5.70 | Cc1cccc(NC(=O)N[C@H](CCC(=O)OCc2ccccc2)C(=O)N2CCC(C(=O)Nc3ccccc3)CC2)c1 [5-(R)-Oxo-5-(4-phenylcarbamoyl-piperidin-1-yl)-4-(3-m-tolyl-ureido)-pentanoic acid benzyl ester]
21 | < 5.23 | Cc1cccc(NC(=O)N[C@H](COCc2ccccc2)C(=O)N2CCC(Cc3ccccc3)CC2)c1 [1-[(R)-1-Benzyloxymethyl-2-(4-benzyl-piperidin-1-yl)-2-oxo-ethyl]-3-m-tolyl-urea]
22 | 5.96 | Cc1cccc(NC(=O)N[C@H](CCCc2ccccc2)C(=O)N2CCC(C(=O)c3ccccc3)CC2)c1 [1-{1-[(R)-(4-Benzoyl-piperidin-1-yl)-oxo-methyl]-4-phenyl-butyl}-3-m-tolyl-urea]
